Results: ChEMBL document CHEMBL3217533, “Inhibition of Ras-Effector Interaction by Cyclic Peptides” (Medchemcomm, 2013)
Each block holds one compound with its values, some of them ahead of it. Calls of active or inactive are those of the source. The rule behind the calls is not given here. *1 amine or outer side, *2 acyl side, *3 side chain or, on linkers, in order; H or OH if unused. Where a SMILES comes first, the peptide text is derived from it. Bridges are numbered along the chain shown (N, C = ends). [ ]: non-standard residue; d: D form. dβ3h(hPhe) = O=C(C[C@@H](CCc1ccccc1)N[*:1])[*:2]; Phe(4-F) = N[C@@H](Cc1ccc(F)cc1)C(=O)O; X1 = CC(C)(CO[*:2])C(=O)C(=O)[*:1]; Pip = O=C(O)[C@@H]1CCCCN1

Tests used:
GTPase KRas = GTPase KRas (Homo sapiens, UniProt P01116, G12V); assay: Inhibition of recombinant HA-tagged K-Ras G12V mutant (unknown origin) assessed as disruption of interaction with GST-tagged Raf-RBD after overnight incubation by HTRF assay
[1] = molecular target: T1, Tyrosine-protein phosphatase non-receptor type 1 (Homo sapiens) (UniProt P18031); assay: Binding affinity to PTP1B (unknown origin) up to 20 uM by fluorescence anisotropic assay
T1 sequence (whole entry): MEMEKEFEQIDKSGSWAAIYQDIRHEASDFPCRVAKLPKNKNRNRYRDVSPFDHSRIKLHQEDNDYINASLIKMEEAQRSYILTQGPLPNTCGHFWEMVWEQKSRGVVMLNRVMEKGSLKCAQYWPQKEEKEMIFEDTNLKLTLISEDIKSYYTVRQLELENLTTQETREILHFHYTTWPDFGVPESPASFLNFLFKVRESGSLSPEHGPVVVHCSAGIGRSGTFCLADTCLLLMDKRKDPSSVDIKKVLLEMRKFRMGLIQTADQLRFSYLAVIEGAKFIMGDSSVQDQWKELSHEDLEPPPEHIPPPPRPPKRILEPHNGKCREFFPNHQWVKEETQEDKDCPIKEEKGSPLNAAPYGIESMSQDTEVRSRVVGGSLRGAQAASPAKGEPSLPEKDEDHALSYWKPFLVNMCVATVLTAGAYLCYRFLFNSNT

Albumin = Albumin (Bos taurus, UniProt P02769); assay: Binding affinity to bovine serum albumin up to 20 uM by fluorescence anisotropic assay; details: cattle
[2] = molecular target: T2, Tyrosine-protein phosphatase non-receptor type 2 (Homo sapiens) (UniProt P17706); assay: Binding affinity to TCPTP (unknown origin) up to 20 uM by fluorescence anisotropic assay
T2 sequence (whole entry): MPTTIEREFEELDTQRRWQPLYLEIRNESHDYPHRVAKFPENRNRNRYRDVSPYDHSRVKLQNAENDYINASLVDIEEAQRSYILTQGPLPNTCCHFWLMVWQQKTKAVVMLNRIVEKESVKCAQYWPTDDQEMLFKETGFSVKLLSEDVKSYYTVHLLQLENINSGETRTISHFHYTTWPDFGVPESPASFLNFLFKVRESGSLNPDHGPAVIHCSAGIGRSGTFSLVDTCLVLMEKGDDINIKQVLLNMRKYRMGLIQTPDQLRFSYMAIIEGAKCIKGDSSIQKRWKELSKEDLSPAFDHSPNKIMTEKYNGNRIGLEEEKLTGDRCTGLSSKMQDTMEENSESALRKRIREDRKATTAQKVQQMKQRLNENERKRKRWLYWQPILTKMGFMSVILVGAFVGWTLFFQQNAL

[3] = Binding affinity to MBP-tagged VP35 (unknown origin) up to 20 uM by fluorescence anisotropic assay
[4] = system: GTPase KRas (Homo sapiens), P01116 [G12V]; assay: Binding affinity to K-Ras G12V mutant (unknown origin) after 2 hrs by fluorescence polarization-based spectrofluorimetric analysis
[5] = molecular target: SH2 domain-containing protein 2A (Homo sapiens) (UniProt Q9NP31); assay: Binding affinity to GST-tagged TSAD SH2 domain (unknown origin) up to 20 uM by fluorescence anisotropic assay
[6] = system: GTPase KRas (Homo sapiens), P01116 [G12V]; assay: Inhibition of K-Ras G12V mutant in human A549 cells assessed as decrease in Mek phosphorylation up to 16 hrs; assay type: cell-based
[7] = system: GTPase KRas (Homo sapiens), P01116 [G12V]; assay: Inhibition of K-Ras G12V mutant (unknown origin) assessed as disruption of interaction with GST-tagged Raf-RBD at 10 uM after 60 mins by fluorescence microscopic-based bead binding assay
[8] = system: GTPase KRas (Homo sapiens), P01116 [G12V]; details: 10 uM
[9] = system: GTPase KRas (Homo sapiens), P01116 [G12V]; assay: Inhibition of K-Ras G12V mutant in human A549 cells assessed as decrease in Erk phosphorylation up to 16 hrs; assay type: cell-based
[10] = system: GTPase KRas (Homo sapiens), P01116 [G12V]; assay: Inhibition of K-Ras G12V mutant (unknown origin) assessed as disruption of interaction with Tiam1 at 10 uM after 60 mins by fluorescence microscopic-based bead binding assay
[11] = system: GTPase KRas (Homo sapiens), P01116 [G12V]; assay: Binding affinity to K-Ras G12V mutant (unknown origin) by surface plasmon resonance assay
[12] = system: GTPase KRas (Homo sapiens), P01116 [G12V]; assay: Inhibition of K-Ras G12V mutant in human H358 cells assessed as decrease in Erk phosphorylation up to 16 hrs; assay type: cell-based
[13] = system: GTPase KRas (Homo sapiens), P01116 [G12V]; assay: Inhibition of K-Ras G12V mutant (unknown origin) assessed as disruption fluorescein-labeled Raf binding to beads immobilized with K-Ras G12V mutant at 10 uM after 60 mins by fluorescence microscopic-based bead binding assay
[14] = system: GTPase KRas (Homo sapiens), P01116 [G12V]; assay: Inhibition of K-Ras G12V mutant in human H358 cells assessed as decrease in Mek phosphorylation up to 16 hrs; assay type: cell-based

Chain of GTPase KRas (Homo sapiens), P01116 [G12V] (P01116 whole entry G12V, the tested form may be a part): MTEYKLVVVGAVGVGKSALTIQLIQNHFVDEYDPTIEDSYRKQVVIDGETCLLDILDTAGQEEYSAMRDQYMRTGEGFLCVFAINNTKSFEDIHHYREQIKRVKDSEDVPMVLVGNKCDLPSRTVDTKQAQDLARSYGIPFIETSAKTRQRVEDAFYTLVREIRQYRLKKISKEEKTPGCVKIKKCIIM
Chain of GTPase KRas (P01116 whole entry G12V): as the sequence (P01116 whole entry G12V, the tested form may be a part) above
Chain of SH2 domain-containing protein 2A (Homo sapiens) (Q9NP31 whole entry, looked up, the tested form may be a part): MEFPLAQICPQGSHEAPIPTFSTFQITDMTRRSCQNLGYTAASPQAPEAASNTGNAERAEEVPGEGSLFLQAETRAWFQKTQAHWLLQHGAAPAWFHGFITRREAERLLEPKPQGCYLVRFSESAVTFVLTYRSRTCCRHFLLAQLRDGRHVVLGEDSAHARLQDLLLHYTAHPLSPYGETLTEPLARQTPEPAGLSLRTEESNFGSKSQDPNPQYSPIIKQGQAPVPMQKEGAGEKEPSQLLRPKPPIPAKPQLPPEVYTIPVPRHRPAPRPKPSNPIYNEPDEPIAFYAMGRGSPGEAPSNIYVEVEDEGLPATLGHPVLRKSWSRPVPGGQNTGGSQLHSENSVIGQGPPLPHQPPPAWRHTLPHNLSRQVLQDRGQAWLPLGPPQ
Chain of Albumin (P02769 whole entry): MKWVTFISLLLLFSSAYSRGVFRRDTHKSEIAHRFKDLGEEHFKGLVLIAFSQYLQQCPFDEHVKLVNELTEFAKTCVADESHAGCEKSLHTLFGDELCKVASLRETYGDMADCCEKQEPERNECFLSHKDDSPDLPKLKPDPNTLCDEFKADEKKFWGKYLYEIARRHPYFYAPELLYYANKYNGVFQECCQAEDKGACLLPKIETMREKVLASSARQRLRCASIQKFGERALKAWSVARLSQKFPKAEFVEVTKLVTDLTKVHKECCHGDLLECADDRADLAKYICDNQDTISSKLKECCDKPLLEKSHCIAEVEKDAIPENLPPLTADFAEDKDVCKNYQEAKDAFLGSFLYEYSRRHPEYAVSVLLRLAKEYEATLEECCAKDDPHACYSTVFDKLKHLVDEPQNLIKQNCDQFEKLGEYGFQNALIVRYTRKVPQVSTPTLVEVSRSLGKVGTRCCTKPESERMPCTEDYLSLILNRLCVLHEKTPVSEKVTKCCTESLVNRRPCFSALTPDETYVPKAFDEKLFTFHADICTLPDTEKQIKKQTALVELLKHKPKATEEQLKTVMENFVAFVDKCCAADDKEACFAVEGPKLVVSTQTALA

IC50 (GTPase KRas): 1800 nM
SMILES: CC1(C)COC(=O)[C@H](Cc2ccccc2)NC(=O)[C@H](CCCNC(=N)N)NC(=O)CNC(=O)[C@H](Cc2ccc(O)cc2)NC(=O)[C@@H](Cc2ccc3ccccc3c2)NC(=O)[C@H](CCCN)NC(=O)[C@H](CCC(N)=O)NC(=O)C[C@@H](CCc2ccccc2)NC(=O)[C@@H]2CCCCN2C(=O)C1=O

IC50 (GTPase KRas): 1200 nM
SMILES: CC(C)[C@@H]1NC(=O)[C@@H](CC(N)=O)NC(=O)[C@H](CCCNC(=N)N)NC(=O)[C@H](CCCNC(=N)N)NC(=O)[C@H](Cc2ccc(F)cc2)NC(=O)[C@H](Cc2ccc(O)cc2)NC(=O)[C@H](CCC(N)=O)NC(=O)C[C@@H](CCc2ccccc2)NC(=O)[C@@H]2CCCCN2C(=O)C(=O)C(C)(C)COC1=O

SMILES: CC(C)C[C@@H]1NC(=O)[C@H](CCCNC(=N)N)NC(=O)[C@H](CCCNC(=N)N)NC(=O)[C@H](Cc2ccc(O)cc2)NC(=O)[C@H](Cc2ccc(F)cc2)NC(=O)[C@H](CCCNC(=N)N)NC(=O)[C@H](CCC(N)=O)NC(=O)C[C@@H](CCc2ccccc2)NC(=O)[C@@H]2CCCCN2C(=O)C(=O)C(C)(C)COC1=O ([Pip][dβ3h(hPhe)]QR[Phe(4-F)]YRRL; linker N-C via X1)
Activity [1]: inactive | Activity (Albumin): Not Active | Activity [2]: inactive | Activity [3]: inactive | Activity [4]: inactive | Activity [5]: inactive

IC50 (GTPase KRas): 1100 nM
SMILES: CC1(C)COC(=O)[C@H](Cc2ccccc2)NC(=O)[C@H](CCCNC(=N)N)NC(=O)[C@@H](Cc2ccc3ccccc3c2)NC(=O)[C@H](CCCNC(=N)N)NC(=O)[C@@H](Cc2ccccc2)NC(=O)[C@H](CCCN=C(N)N)NC(=O)[C@H](CCC(N)=O)NC(=O)C[C@@H](CCc2ccccc2)NC(=O)[C@@H]2CCCCN2C(=O)C1=O

IC50 (GTPase KRas): 2000 nM
SMILES: CC(C)C[C@@H]1NC(=O)[C@@H](Cc2ccc3ccccc3c2)NC(=O)[C@H](CCCNC(=N)N)NC(=O)[C@@H](C(C)C)NC(=O)[C@H](CCCNC(=N)N)NC(=O)[C@H](C)NC(=O)[C@H](CCC(N)=O)NC(=O)C[C@@H](CCc2ccccc2)NC(=O)[C@@H]2CCCCN2C(=O)C(=O)C(C)(C)COC1=O

IC50 (GTPase KRas): 10000 nM
SMILES: CC1(C)COC(=O)[C@H](Cc2ccccc2)NC(=O)[C@H](CCCNC(=N)N)NC(=O)[C@H](Cc2ccc(O)cc2)NC(=O)[C@@H]2CCCN2C(=O)[C@H](Cc2ccc(O)cc2)NC(=O)[C@@H](Cc2ccccc2)NC(=O)[C@H](CCC(N)=O)NC(=O)C[C@@H](CCc2ccccc2)NC(=O)[C@@H]2CCCCN2C(=O)C1=O

IC50 (GTPase KRas): 2300 nM
SMILES: C[C@@H]1NC(=O)[C@H](Cc2ccc(O)cc2)NC(=O)[C@H](CCCNC(=N)N)NC(=O)[C@@H]([C@H](C)O)NC(=O)CNC(=O)[C@H](CCC(N)=O)NC(=O)C[C@@H](CCc2ccccc2)NC(=O)[C@@H]2CCCCN2C(=O)C(=O)C(C)(C)COC(=O)[C@H](Cc2ccccc2)NC1=O

IC50 (GTPase KRas): 10000 nM
SMILES: CC(C)C[C@@H]1NC(=O)[C@H](CCC(=O)O)NC(=O)[C@H](c2ccccc2)NC(=O)[C@@H](Cc2ccccc2)NC(=O)[C@H](CCCN)NC(=O)[C@@H]2CCCN2C(=O)[C@H](CCC(N)=O)NC(=O)C[C@@H](CCc2ccccc2)NC(=O)[C@@H]2CCCCN2C(=O)C(=O)C(C)(C)COC1=O

IC50 (GTPase KRas): 10000 nM
SMILES: CCCC[C@H]1NC(=O)[C@@H](Cc2ccc3ccccc3c2)NC(=O)[C@@H](Cc2ccc3ccccc3c2)NC(=O)[C@@H](CCCCN)NC(=O)[C@H](CCCNC(=N)N)NC(=O)[C@H](Cc2ccc(F)cc2)NC(=O)[C@H](CCC(N)=O)NC(=O)C[C@@H](CCc2ccccc2)NC(=O)[C@@H]2CCCCN2C(=O)C(=O)C(C)(C)COC1=O

Activity [1]: Active | inhibition [6]: inactive | Activity (Albumin): Active | inhibition [7]: Active | inhibition [8]: Active | Activity [2]: Active | inhibition [9]: inactive | Activity [3]: Active | inhibition [10]: Active | Activity [11]: Active | inhibition [12]: inactive | inhibition [13]: Active | inhibition [14]: inactive | Activity [5]: Active
SMILES: CCCC[C@H]1NC(=O)[C@H](Cc2ccc(F)cc2)NC(=O)[C@H](CCCN=C(N)N)NC(=O)[C@@H](Cc2ccc3ccccc3c2)NC(=O)[C@H](CCCN=C(N)N)NC(=O)[C@H](CCCN=C(N)N)NC(=O)[C@H](CCC(N)=O)NC(=O)C[C@@H](CCc2ccccc2)NC(=O)[C@@H]2CCCCN2C(=O)C(=O)C(C)(C)COC1=O
